Assay results as given in ChEMBL document CHEMBL3351605, “Biased multicomponent reactions to develop novel bromodomain inhibitors” (J Med Chem, 2014).
pEC50, pIC50, pKd: −log10 of the molar value.

Columns and labels:
[1] = Cytotoxicity against BRD4-NUT-expressing human NMC-797 cells assessed as reduction in cell viability after 3 days by ATPlite assay; type: functional, cell-based; details: NMC-797, 72 h
[2] = molecular target: T1, Bromodomain-containing protein 4 (Homo sapiens, UniProt O60885); assay: Inhibition of BRD4 (unknown origin) by biotinylated-JQ1 based AlphaScreen BRD binding assay
[3] = molecular target: T1, Bromodomain-containing protein 4; assay: Binding affinity to BRD4 (unknown origin) by isothermal titration […]

In the case of COc1ccc(Nc2c(-c3ccc(-c4c(C)noc4C)cc3)nc3ccc(Cl)cn23)cc1, the pEC50 [1] was 4.68.

With Cc1noc(C)c1-c1ccc(-c2nc3cnccn3c2NC(C)(C)C)cc1F the pEC50 [1] was 4.89.

COc1ccc(-c2cc(-c3ccc(-c4c(C)noc4C)cc3)nc(-c3ccccc3)n2)cc1 showed a pIC50 [2] of 4.16 and a pEC50 [1] of under 4.00.

Compound Cc1ccc2nc(-c3ccc(-c4c(C)noc4C)cc3)c(NCc3ccccc3)n2c1 has a pIC50 [2] of under 4.00.

Work on Cc1noc(C)c1-c1ccc(C=O)cc1 yielded a pIC50 [2] of 5.77.

For CCOC(=O)[C@]1(C)NC(c2ccc(-c3c(C)noc3C)cc2)C2C(=O)N(CC)C(=O)C21 (some centres undefined), the pEC50 [1] was 5.03.

For Cc1noc(C)c1-c1cccc(C2Nc3ccccc3NC3=C2C(=O)OC3)c1 (centres undefined), the pEC50 [1] was under 4.00.

Cc1noc(C)c1-c1ccc(-c2nc3cnccn3c2NC(C)(C)C)cn1 showed a pEC50 [1] of under 4.00.

For Cc1noc(C)c1-c1ccc(-c2nc3ccccn3c2NC2CCCCC2)cc1, the pEC50 [1] was 5.29.

Work on Cc1noc(C)c1-c1ccc(-c2nc3ccc(Cl)cn3c2NC(C)(C)C)cc1 yielded a pEC50 [1] of 5.66.

For CCOC(=O)C(C)N(Cc1ccc(-c2c(C)noc2C)cc1)C(=O)c1ccc(OC)cc1 (centres undefined), the pIC50 [2] was 4.79.

For Cc1noc(C)c1-c1ccc(-c2nc3cnccn3c2NC(C)(C)C)nc1, the pEC50 [1] was 5.08.

Cc1noc(C)c1-c1ccc(-c2nc3ccc(Cl)cn3c2NCc2ccccc2)cc1 showed a pEC50 [1] of 4.74.

Cc1noc(C)c1-c1ccc(-c2nc3cnccn3c2NC(C)(C)C)cc1 gave a pIC50 [2] of 6.20, a pEC50 [1] of 6.14 and a pKd [3] of 6.26.

In the case of Cc1noc(C)c1-c1ccc(-c2nc3cnccn3c2NCc2ccccc2)cc1, the pEC50 [1] was 4.31.

Compound Cc1noc(C)c1-c1ccc(-c2nc3ccccn3c2NC(C)(C)C)cc1 has a pEC50 [1] of 5.69.

With COc1ccc(Nc2c(-c3ccc(-c4c(C)noc4C)cc3)nn3ccncc23)cc1 the pIC50 [2] was 5.10.

For CCCCN1C(=O)c2ccccc2NC(=O)C1c1ccc(-c2c(C)noc2C)c(OC)c1 (centres undefined), the pEC50 [1] was 5.00.

COc1ccc(Nc2c(-c3ccc(-c4c(C)noc4C)cc3)nc3cc(OC)ncn23)cc1 showed a pEC50 [1] of 4.93.

For Cc1noc(C)c1-c1ccc(-c2nc3cnccn3c2NC(C)C)cc1, the pEC50 [1] was 6.31.

In the case of COc1ccc(Nc2c(-c3ccc(-c4c(C)noc4C)cc3)nc3ccccn23)cc1, the pEC50 [1] was 5.13.
